We go through one compound from patent publication US12385061B2, “Compositions and methods for chimeric ligand receptor (CLR)-mediated conditional gene expression” (Poseida Therapeutics, Inc., priority 2017, dated 2025).

Where two headings read alike, the source gives them in different places.

Data set [1] deals with cells. The data set is described as follows: Amount of AP1903 needed in vitro for effective signaling of cells. In kind it is cell-based. As to conditions: converted with 1600 Da MW. As to the method:
The fixed dose of AP1903 for injection used, for example, may be 0.4 mg/kg intravenously infused over 2 hours. The amount of AP1903 needed in vitro for effective signaling of cells is 10-100 nM (1600 Da MW). This equates to 16-160 μg/L or {tilde over ( )}0.016-1.6 μg/kg (1.6-160 μg/kg). Doses up to 1 mg/kg were well-tolerated in the Phase I study of AP1903 described above. Therefore, 0.4 mg/kg may be a safe and effective dose of AP1903 for this Phase I study in combination with the therapeutic cells.

Data set [2] relates to cells. The settings on record: cited from earlier work.
For data set [3] the following is noted: cited from earlier work.

Regarding `CC[C@H](C(=O)N1CCCC[C@H]1C(=O)O[C@H](CCc1ccc(OC)c(OC)c1)c1cccc(OCC(=O)NCCNC(=O)COc2cccc([C@@H](CCc3ccc(OC)c(OC)c3)OC(=O)[C@@H]3CCCCN3C(=O)[C@@H](CC)c3cc(OC)c(OC)c(OC)c3)c2)c1)c1cc(OC)c(OC)c(OC)c1` (relative stereo) [AP1903, 2-Piperidinecarboxylic acid, 1-[(2S)-1-oxo-2-(3,4,5-trimethoxyphenyl)butyl]-, 1,2-ethanediylbis[imino(2-oxo-2,1-ethanediyl)oxy-3,1-phenylene[(l R)-3-(3,4-dimethoxyphenyl)propylidene]]ester, [2S-[1(R*),2R*[S*[S*[1(R*),2R*]]]]]-(9Cl)], the “amount needed in vitro for effective signaling of cells, converted” value in the data set with cells [1] lay in the range of 16 to 160 µg/L. Also, in the data set on cells [2], the “amount needed in vitro for effective signaling of cells” value was 10 to 100 nM. Moreover, the pharmacokinetic profile result in data set [3] (0.01-1.0 mg/kg IV over 2 hours) is given as “favorable pharmacokinetic profile”. Further, the “plasma levels in relation to dose” value in data set [3] (0.01-1.0 mg/kg IV over 2 hours) is recorded as “directly proportional to dose”. Besides, the “plasma level as % of maximal concentration” value is listed as “approximately 18%” in data set [3] (0.5 hours post-dose), around 7% in data set [3] (2 hours post-dose) and around 1% in data set [3] (10 hours post-dose). Further, the doses well-tolerated result in data set [3] (Phase I study) is on record as “up to 1 mg/kg”. For the same compound, the safety and tolerability entry in data set [3] (at all dose levels (0.01-1.0 mg/kg)) was “safe and well tolerated”. Moreover, the “mean Cmax” value in data set [3] (over the 0.01-1.0 mg/kg dose range, single doses infused IV over 2 hours, 24 healthy volunteers) was 10 to 1275 ng/mL.
